Counter-ions that a name gives are not always drawn.
Molecular target: T1, DPP IV (Felis catus, UniProt Q9N2I7)
T1 construct: Blood samples for the determination of this compound and DPP IV activity were collected; from tissue; host or cells: plasma of domestic short hair / purpose-bred cats dosed orally
Assay: 60-Day tolerability study of tablets in cats: relative DPP IV activity
Type: in vivo, cat
Settings: percent of day 2 predose
Method: This study was conducted in order to examine the long-term tolerability of a pharmaceutical composition comprising 1-[(3-cyano-pyridin-2-yl)methyl]-3-methyl-7-(2-butyn-1-yl)-8-[3-(R)-amino-piperidin-1-yl]-xanthine monohydrochloride in cats after repeated oral administration for 60-days.
For this purpose, the compound according to the invention has been admixed with standard ingredients to a scored, oblong, brown tablet, size 10×5.5 mm, comprising 1-[(3-cyano-pyridin-2-yl)methyl]-3-methyl-7-(2-butyn-1-yl)-8-[3-(R)-amino-piperidin-1-yl]-xanthine monohydrochloride at 21.68 mg of the chloride per tablet (which equals 20 mg of the free base) and 10% meat flavour.
20 male healthy non-obese cats (Domestic short hair feline) supplied by Liberty Research, Inc., Waverly, N.Y., USA, of an age of 13 to 20 months were used. After an adaptation period of 4 weeks, they were separated into three groups: group 1 (6 members, no. 1 to 6) for placebo treatment, group 2 (7 members, no. 7 to 13) for treatment with 20 mg/cat, group 3 (7 members, no. 14 to 20) for treatment with 40 mg/cat. They were treated once daily in the morning, orally with the respective tablet(s) for 60 days. All animals had fasted over night and were fed 4 hours after the administration. Drinking water was offered ad libitum. Housing conditions etc. were kept constant and equally for all animals; they were kept in groups during the adaptation period and singly during the experimental period.
Relative DPP-IV activity was measured as described above.

T1 sequence (Q9N2I7 38-765 limits assumed): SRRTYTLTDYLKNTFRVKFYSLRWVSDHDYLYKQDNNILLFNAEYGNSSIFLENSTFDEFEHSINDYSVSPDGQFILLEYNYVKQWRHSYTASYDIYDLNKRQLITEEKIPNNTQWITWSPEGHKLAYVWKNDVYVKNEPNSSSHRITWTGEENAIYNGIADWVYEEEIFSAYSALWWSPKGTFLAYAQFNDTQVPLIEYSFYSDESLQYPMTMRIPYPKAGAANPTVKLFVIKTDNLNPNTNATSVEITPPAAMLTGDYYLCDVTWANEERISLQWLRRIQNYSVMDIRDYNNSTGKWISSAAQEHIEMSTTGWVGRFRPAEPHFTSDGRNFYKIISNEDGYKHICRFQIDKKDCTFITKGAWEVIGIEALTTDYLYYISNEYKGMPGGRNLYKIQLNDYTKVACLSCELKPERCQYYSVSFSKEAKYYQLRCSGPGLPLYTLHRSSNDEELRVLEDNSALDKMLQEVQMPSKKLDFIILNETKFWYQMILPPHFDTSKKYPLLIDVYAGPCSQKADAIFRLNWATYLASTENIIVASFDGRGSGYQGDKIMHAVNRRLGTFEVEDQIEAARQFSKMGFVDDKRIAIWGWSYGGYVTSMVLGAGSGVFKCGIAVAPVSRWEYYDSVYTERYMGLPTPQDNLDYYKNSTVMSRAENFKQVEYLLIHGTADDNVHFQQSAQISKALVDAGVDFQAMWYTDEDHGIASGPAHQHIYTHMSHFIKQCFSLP

CC#CCn1c(N2CCC[C@@H](N)C2)nc2c1c(=O)n(Cc1ncccc1C#N)c(=O)n2C [1-[(3-cyano-pyridin-2-yl)methyl]-3-methyl-7-(2-butyn-1-yl)-8-[3-(R)-amino-piperidin-1-yl]-xanthine monohydrochloride]
Relative DPP IV activity (Group no. 2 (20 mg daily tablets), Treatment day 60 (1 h after dose)): 11% | Relative DPP IV activity (Group no. 2, excl. animal no. 8 (20 mg daily tablets), Treatment day 60 (predose)): 17% | Relative DPP IV activity (Group no. 3 (40 mg daily tablets), Treatment day 60 (1 h after dose)): 10% | Relative DPP IV activity (Group no. 3 (40 mg daily tablets), Treatment day 60 (predose)): 16%

Reference: patent publication US20140228287A1, “1-[(3-CYANO-PYRIDIN-2-YL)METHYL]-3-METHYL-7-(2-BUTYN-1-YL)-8-[3-(R)-AMINO-PIPERIDIN-1-YL]-AXANTHINE FOR THE TREATMENT OF A METABOLIC DISORDER OF A PREDOMINANTLY CARNIVOROUS NON-HUMAN ANIMAL” (BOEHRINGER INGELHEIM VETMEDICA GMBH, priority 2010, published 2014)
